Patent US11780815B2, “DNA2 inhibitors for cancer treatment” (City of Hope, priority 2016, dated 2023)
pIC50: −log10 of the molar value. Read-outs that look alike come from different tables or passages of the source. Each block holds one compound with its values, some of them ahead of it.

Assays:
[1] = tested on: drug-sensitive yeast strains (rad27 mutants, wild-type); assay: Yeast dilution assay, survival after MMS or high temperature; conditions: rad27 mutants lacking FEN1, serial 10 fold dilutions
[2] = tested on: mouse embryonic stem (MES) cells; assay: Cell survival of WT and DNA2 knockout MES cells; assay type: cell-based; conditions: 1 μM C5 for 4 days
[3] = tested on: MCF7 breast cancer cells; assay: Clonogenic assay, combination with CPT or MK4827; assay type: cell-based, human; conditions: for pIC50: Homo sapiens, MCF7
Procedure: The survival rate of the cells treated with various concentrations of CPT was calculated by normalizing the number of colonies to that of the cells without CPT treatment. The survival rate of the cells without CPT treatment was arbitrarily set as 1. […] The IC50 and combination index (CI) was calculated using the Compusyn program. FIG. 7B: Representative inhibition curve of varying concentrations of C5 from 0 to 10 μM in combination with MK4827 (0 or 1 μM).
To test our hypothesis that inhibition of DNA2 synergizes with other chemotherapeutic agents, we treated cells with CPT and C5.

[4] = tested on: panel of 18 cell lines of 4 major types of cancers; assay: Cell proliferation assay, panel of cancer cell lines
[5] = tested on: U2OS cells carrying the GFP reporter gene; assay: DSB repair reporter assays (I-SceI/GFP, HDR and SSA); assay type: cell-based, human
From the text: To further validate C5 as a DNA2 inhibitor, we tested its effects on DNA2 functions known to be affected by knockdown or deletion of DNA2 in previous studies (Howard et al., 2015; Karanja et al., 2014; Karanja et al., 2012; Peng et al., 2012). We first determined the effect of C5 on two recombination pathways, SSA (single-strand annealing) and homologous recombination (HR), using I-SceI/GFP-based reporter assays. […] . HDR-GFP and SSA-GFP were integrated in U2OS cells (Gunn and Stark, 2012; Howard et al., 2015). […] . The cells were harvested and the GFP+ frequencies (repair frequencies) were determined by flow cytometry using a CyAn ADP Analyzer (Beckman Coulter, Inc.).

[6] = molecular target: FEN1 (Homo sapiens, UniProt P39748); conditions: Liu et al EBioMedicine 6 (2016) 73-86; cited from earlier work
FEN1, sequence (P39748 whole entry, species assumed): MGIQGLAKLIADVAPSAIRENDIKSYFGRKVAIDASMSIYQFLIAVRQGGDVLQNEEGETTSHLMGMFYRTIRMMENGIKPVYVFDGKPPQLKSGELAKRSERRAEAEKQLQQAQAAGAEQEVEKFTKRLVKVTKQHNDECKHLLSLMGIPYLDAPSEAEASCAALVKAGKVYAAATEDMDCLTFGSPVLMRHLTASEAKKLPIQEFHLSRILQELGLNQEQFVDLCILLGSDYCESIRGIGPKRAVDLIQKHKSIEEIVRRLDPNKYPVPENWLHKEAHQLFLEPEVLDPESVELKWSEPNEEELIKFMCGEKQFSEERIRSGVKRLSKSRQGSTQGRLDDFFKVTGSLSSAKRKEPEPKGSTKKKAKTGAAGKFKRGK

[7] = tested on: HCT116 DNA2 flox/+/+ cells; assay: Synthetic lethality of C5 with FEN1, EXO1 or MRE11 siRNA knockdown; assay type: cell-based, human
Procedure: FIGS. 13A-13C. Synergy between C5 and FEN1. […] . On day 1, HCT116 DNA2^flox/+/+ and HCT116 DNA2^flox/−/− cells (3*10^6 were plated in 10 cm dishes, respectively. On day 2, the genetic knockout of DNA2 was induced with tamoxifen as previously described (Karanja et al., 2014). Control wells contained EtOH. On day 3, the tamoxifen floxed cells, now DNA2^−/+/+ and DNA2^−/−/−, and DNA2^flox/+/+ controls were plated on 24 well plates, 20,000 to 30,000 cells per well, and incubated overnight. On day 4, wells were transfected with 20 pmole control SCR siRNA or FEN1 (FIG. 13A), EXO1 (FIG. 13B), or MRE11 (FIG. 13C) si RNAs, respectively, as previously described using GeneMute. siRNAs were obtained from Invitrogen: FEN1 (HSS103627, HSS103629, HSS176903), MRE11 (HSS142960, HSS142961, HSS181171), EXO1 (HSS113557, HSS113558, HSS113559). Cells were incubated overnight. […] . Cells were cultured for an additional 3 days, until DNA2 ^flox/+/+ cells lacking C5 were confluent. As a control for the efficacy of C5, the effect of genetic knockdown of DNA2 was tested in the presence the respective siRNA treated DNA2^−/−/− (gray curves). Cells were then washed with PBS, trypsinized and stained with tryphan blue to differentiate live cells from dead cells. Cells were counted microscopically in a Neubauer chamber. Error bars represent data from duplicate experiments. […] .
In yeast, pathways mediated by DNA2 overlap with repair or replication by FEN1, EXO1, or MRE11 and not with others (Budd, M. E., Tong, A. H., Polaczek, P., Peng, X., Boone, C., and Campbell, J. L. (2005). A network of multi-tasking proteins at the DNA replication fork preserves genome stability. PLoS genetics 1, e61). Thus, mutants defective in FEN1, EXO1, or MRE11 are viable only in the presence of active DNA2. Double mutants deficient in DNA2 and FEN1, EXO1, or MRE11, respectively, are inviable, especially in the presence of DNA damage. This effect is called synthetic lethality. To test for synthetic lethality, deficiency in DNA2, can be induced either by genetic mutation or, if a specific inhibitor is available, by inhibition of DNA2. We reasoned that if DNA2 is the major cellular target of C5, then cells deficient in FEN1, EXO1, or MRE11 should be hypersensitive to C5, i.e. C5 should synergize with deficiency in any one of these three genes. We have now shown that this is the case in both yeast and in human cells (FIGS. 13A-13C, human cells and FIG. 14, yeast cells). […] . […] After floxing, i.e. induction of Cre nuclease with tamoxifen, this strain becomes a complete DNA2 knockout. […] .

[8] = tested on: MCF7 cells; assay: Cell survival of control (shSCR) or DNA2 knockdown MCF7 cells; assay type: cell-based, human; conditions: 1 μM C5 for 4 days
From the text: . […] The live cells were counted.

[9] = tested on: phosphorylated RPA2 and γH2AX in MCF7 and A549 cells; assay: Phosphorylated RPA and γH2AX after CPT (western blot, immunofluorescence)
[10] = tested on: FANCD2−/− fibroblasts; assay: Cisplatin sensitivity of FANCD2−/− cells; conditions: 125 nM cisplatin, 10 μM C5, compared to cells not treated with C5
[11] = tested on: BRCA2- or BOD1L-depleted or mock transfected U2OS cells; assay: P-RPA foci in fork protection defective cells after HU; assay type: cell-based, human
From the text: Fork protection is a DNA break repair-independent pathway suppressing genomic instability (Schlacher et al, 2011; Schlacher et al, 2012). The fork protection pathway is mediated by BRCA2, BRCA1, RAD51, members of the Fanconi anemia pathway, and […]. In the absence of any of these factors, excessive nascent DNA degradation occurs at stalled replication forks. This degradation is prevented if the end-resection protein MRE11 is inhibited either by siRNA knockdown or by inhibition of MRE11 nuclease by the small molecule mirin (Schlacher et al., 2011; Schlacher et al., 2012). MRE11 functions upstream of DNA2 in resection of double-strand breaks, and DNA2, in addition to MRE11 has been implicated in over-resection at stalled replication forks in BOD1L and in RAD51 impaired cells, since over-resection is suppressed by knockdown of DNA2 in the absence of BOD1L or in a RAD51 mutant cell line (Higgs et al., 2015; Wang et al., 2015). […] . After treatment of the BRCA2- or BOD1L-depleted U2OS cells with HU, which stalls forks but is not expected to produce DSBs (Petermann et al., 2010; Schlacher et al., 2011; Schlacher et al., 2012), and which are fork protection defective, we observed a dramatic increase in P-RPA positive cells indicative of nascent DNA degradation upon treatment with HU (FIGS. 6C and FIG. 12B). […] . The potency of C5 was estimated by comparing the effect of mirin, the MRE11 inhibitor, in the same experiment. […] . Our results are in keeping with previous work showing that knockdown of DNA2 counteracts excessive nascent strand degradation in both BOD1L and in RAD51 impaired cells (Higgs et al., 2015; Wang et al., 2015). […] .

[12] = tested on: A549 cells; assay: DNA fiber assay, replication fork restart; conditions: for percentage of restarting forks: 20 μM C5

SMILES: CCCCNC(=O)c1c[nH]c2c([N+](=O)[O-])cccc2c1=O [C5-2]
sensitisation of rad27 yeast to DNA damage [1]: more effective than C5

SMILES: O=C(O)c1cnc2c([N+](=O)[O-])cccc2c1O [C5]
effect on survival rate [2]: did not further reduce the survival rate
combination with MK4827, survival of MCF7 cells ([3]; C5 0 to 10 μM, MK4827 0 to 1 μM): strong synergistic effect
combination with CPT, cellular lethality ([3]; C5 1 μM with different concentrations of CPT): synergistic
pIC50 [3]: 5.72
combination index ([3]; MK4827 (1 μM) and C5 (2 μM), Compusyn): 0.13
cytotoxicity to human cancer cells among the nuclease-inhibiting hits [4]: highest cytotoxicity
sensitisation of rad27 yeast to DNA damage [1]: synergizes with MMS and with deletion of rad27
HR (homologous recombination) frequency ([5]; 0, 10, 20, 40, 60 μM C5, 72 h): reduced by C5 in a dose-dependent manner
SSA (single-strand annealing) frequency ([5]; 0, 10, 20, 40, 60 μM C5, 72 h): reduced by C5 in a dose-dependent manner
HR frequency compared with siRNA DNA2 knockdown ([5]; 60 μM C5): reduced to the same level as in an siRNA DNA2 knockdown
SSA frequency compared with siRNA DNA2 knockdown ([5]; 60 μM C5): reduced to the same level as in an siRNA DNA2 knockdown
inhibition of FEN1 [6]: not inhibited
cell killing by increasing levels of C5 ([7]; scrambled siRNA): resistant
cell killing by increasing levels of C5 ([7]; siRNA knockdown of EXO1): killed by increasing levels of C5
cell killing by increasing levels of C5 ([7]; siRNA knockdown of FEN1): killed by increasing levels of C5
cell killing by increasing levels of C5 ([7]; siRNA knockdown of MRE11): killed by increasing levels of C5
effect on survival rate ([8]; DNA2 knockdown human cancer cells): did not further reduce the survival rate
survival rate compared to the untreated WT control ([8]; human cancer cells (printed MEF7)): 60%
CPT-induced P-RPA level in γH2AX-positive cells ([9]; 10 μM C5 for 24 hours, then 1 μM CPT for 4 hours): significantly reduced
γH2AX level ([9]; C5 alone, 10 μM): background increase
survival of cisplatin-treated cells [10]: increase in survival
nascent DNA degradation (P-RPA positive cells) ([11]; BRCA2- or BOD1L-depleted U2OS cells, 4 mM HU 5 h, 20 μM C5): suppressed
potency in reducing nascent DNA degradation relative to mirin ([11]; BRCA2- or BOD1L-depleted U2OS cells, HU, 20 μM C5): comparable potency to 50 μM mirin
reduction in P-RPA foci ([11]; BRCA2-deficient cells, 4 mM HU 5 h): equivalent to that observed in a DNA2 knockdown
number of P-RPA positive cells ([11]; mock-depleted cells, absence of HU): neither mirin nor C5 significantly decreased
percentage of restarting forks ([12]; CPT-treated cells (150 nM CPT), 75% in absence of C5): 50%
percentage of restarting forks ([12]; HU-treated cells (2 mM HU), 80% in absence of C5): 60%
replication fork restart ([12]; high levels of CPT (2 μM), 10 μM C5): inhibited restart

pIC50 ([3]; clonogenic assay, single agent, read-out: IC50): 6.10
SMILES: NC(=O)c1cccc2cn(-c3ccc([C@@H]4CCCNC4)cc3)nc12 [MK4827, 2-{4-[(3S)-piperidin-3-yl]phenyl}-2H-indazole-7-carboxamide, reference compound]
